# In ChEMBL document CHEMBL1153669, “Rs-100235: A high affinity 5-HT4 receptor antagonist” (Bioorg Med Chem Lett, 1995):
# Tests used:
# [1] = biological target: 5-hydroxytryptamine receptor 4 (Rattus norvegicus) (UniProt Q62758); assay: Antagonist activity against 5-HT4 receptor mediated relaxation of rat carbachol contracted esophageal muscularis mucosae; format: functional
# Sus scrofa [2] = assay: Antagonism of 5-HT-induced tachycardia in anesthetized, vagotomized Yucatan micropigs at 1-300 ug/kg dose administered intravenously; format: functional; conditions: iv, read-out: ID50 (the source's name)
# Sus scrofa [3] = assay: Antagonism of 5-HT-induced tachycardia in anesthetized, vagotomized Yucatan micropigs at 30-3000 ug/kg dose administered intraduodenally; format: functional; conditions: intraduodenal, read-out: ID50 (the source's name)
# [4] = Compound was tested for its half-life period at an intravenous dose of 30 ug/kg; format: ADME, organism-based, Sus scrofa; conditions: pig, in vivo, 0.03 mg/kg
# 5-hydroxytryptamine receptor 4 (Rattus norvegicus), sequence (Q62758 whole entry): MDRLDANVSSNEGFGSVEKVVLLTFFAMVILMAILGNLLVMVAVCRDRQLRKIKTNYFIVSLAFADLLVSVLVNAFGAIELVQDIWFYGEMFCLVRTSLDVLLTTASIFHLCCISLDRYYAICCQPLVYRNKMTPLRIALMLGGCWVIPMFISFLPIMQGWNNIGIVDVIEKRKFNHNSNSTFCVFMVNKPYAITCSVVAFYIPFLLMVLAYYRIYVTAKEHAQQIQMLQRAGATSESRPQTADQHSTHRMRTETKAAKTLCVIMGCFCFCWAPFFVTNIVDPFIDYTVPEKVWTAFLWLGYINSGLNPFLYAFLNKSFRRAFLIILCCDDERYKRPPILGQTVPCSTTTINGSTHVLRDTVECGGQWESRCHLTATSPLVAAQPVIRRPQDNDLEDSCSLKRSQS
pKb [1],half-life [4],Structure (SMILES),ED50 (Sus scrofa [2]),ED50 (Sus scrofa [3])
9.6,,Nc1c(Cl)cc(C(=O)CCC2CCN(CCCc3ccccc3)CC2)c2c1OCCO2,,
9.9,,CCCCN1CCC(CCC(=O)c2cc(Cl)c(N)c3c2OCCO3)CC1,,
9.1,5.25 h,COc1cc(COc2cc(N)c(Cl)cc2C(=O)CCC2CCN(CCNS(C)(=O)=O)CC2)cc(OC)c1,0.00468 mg/kg,0.245 mg/kg
9.9,,CS(=O)(=O)NCCN1CCC(CCC(=O)c2cc(Cl)c(N)c3c2OCCO3)CC1,,
